Results taken from ChEMBL document CHEMBL1150178, “Two toxic kaurene glycosides from the burrs of Xanthium pungens” (J Nat Prod, 1990).

Key:
[1] = system: Rattus norvegicus; experiment: Toxicity in Wistar rat at 3 mg/kg; format: organism-based; design: dose 3 mg/kg; conditions: in vivo
[2] = system: Mus musculus; experiment: Toxicity in mouse at 3 mg/kg, ip; format: organism-based; design: dose 3 mg/kg, route intraperitoneal; conditions: in vivo

Row | SMILES | Activity [1] | Activity [2]
1 | C=C1[C@@H]2CC[C@H]3[C@]4(C)C[C@H](O[C@@H]5O[C@H](CO)[C@@H](O)[C@H](O)[C@H]5OC(=O)CC(C)CC)CC(C(=O)O)(C(=O)O)[C@H]4CC[C@]3(C2)[C@H]1O (some centres undefined) | Toxic | Toxic
2 | C=C1[C@@H]2CC[C@H]3[C@]4(C)C[C@H](O[C@@H]5O[C@H](CO)[C@@H](O)[C@H](O)[C@H]5OC(=O)CC(C)C)CC(C(=O)O)(C(=O)O)[C@H]4CC[C@]3(C2)[C@H]1O | Toxic | Toxic
